Measured values reported in patent US6596764B1, “Method of preparing diacetyl rhein” (Laboratoire Medidom S.A., priority 1991, dated 2003).

Columns and labels:
[1] = test system: arthrosis in rabbits induced by the intraarticular administration of vitamin A; assay: Vitamin A arthrosis in rabbits (chronic inflammation model, oral administration); assay type: in vivo, rabbit (white New Zealanders); details: for clinical signs of arthrosis (disturbances of movement, dragging of the rear legs): 7 rabbits
Protocol: The effectiveness of diacetylrhein was determined in chronic inflammation models after oral administration.
The following experimental models were used: cotton pellet granuloma in rats and arthrosis in rabbits induced by the intraarticular administration of vitamin A.
An arthrosis-like joint change was initiated in two groups each of 10 rabbits (white New Zealanders) by means of three intraarticular injections of 30,000 IU of vitamin A over the course of 9 days. 56 days later, 10 animals were treated with 3 mg of diacetylrhein/kg/day for 8 weeks.
Furthermore, the curative action of diacetylrhein was compared with that of acetylsalicylic acid on each of 7 rabbits which, after 6 days pre-treatment with three times 10,000 IU vitamin A and a 26 day treatment-free interval for 8 weeks, received either 5 mg of diacetylrhein/kg/day (experimental group), 15 mg of acetylsalicylic acid/kg/day (positive control group) or remained untreated (negative control group). […] In the negative control group, during the following 8 weeks, the clinical signs of a manifest arthrosis increased.

[2] = in vivo; details: rat, mouse, cat
[3] = test system: mucosal lesions in patients with osteoarthrosis; assay: Clinical randomised double blind double dummy compatibility study (oesophagogastroduodenoscopic findings); assay type: in vivo, human; details: after 4 weeks
Protocol: 4. The action of diacetylrhein was investigated in 23 patients (12/11) with osteoarthrosis in a randomised double blind study using the “double dummy technique” (compatibility study). The dosage administered was 50 mg of diacetylrhein twice daily and 250 mg of naproxen three times daily. The period of treatment was 4 weeks. The test parameters were then oesophagogastroduodenoscopic findings before and after the therapy. Only patients with normal mucosal findings or with slight mucosal lesions (grade 1) were used in the study.

[4] = test system: gastric mucosa; assay: Gastric mucosa changes in the rat; assay type: in vivo
[5] = test system: localised arthrosis; assay: Clinical single blind crossover study against naproxen; assay type: in vivo, human; details: 20 patients
Protocol: 3. The action of diacetylrhein in the case of localised arthrosis in 20 patients was investigated in a single blind crossover study against naproxen. The patients were divided up into two groups: in the first group, initially 50 mg of diacetylrhein was administered twice daily for 20 days. Subsequently, there followed a three day wash-out phase and a further treatment with 250 mg of naproxen twice daily for a further 20 days. In the second group, the reverse sequence was used. The period of treatment was, in all, 43 days. The test parameters of pain, compression pain, passive movement pain, function limitation and swelling were determined according to a score system.

[6] = test system: coxarthrosis and gonarthrosis; assay: Clinical double-blind study against naproxen with subsequent placebo after-treatment; assay type: in vivo, human; details: for improvement of all test parameters (pain and movement symptoms score, function limitation, compatibility) vs initial values: patients, 60 days
Protocol: 1. The action of diacetylrhein was investigated in coxarthrosis and gonarthrosis in 95 (49/46) patients in a double-blind study against naproxen and subsequent placebo after-treatment. The dosage administered was 50 mg of diacetylrhein twice daily or 750 mg of naproxen daily. The period of treatment was 60 days after a 7 day wash-out phase. The subsequent placebo treatment extended over 60 days. Test parameters were the pain and movement symptoms according to a score scale, function limitation and compatibility.

[7] = test system: cotton pellet granuloma; assay: Cotton pellet granuloma in rats (chronic inflammation model, oral administration); assay type: in vivo, rat
Protocol: The effectiveness of diacetylrhein was determined in chronic inflammation models after oral administration. The following experimental models were used: cotton pellet granuloma in rats and arthrosis in rabbits induced by the intraarticular administration of vitamin A. a) Cotton pellet granuloma in rats. Young sexually mature rats (n=10) were given 25, 50 or 100 mg diacetylrhein/kg or 5 mg indomethacin/kg or 100 mg acetylsalicylic acid/kg daily for 5 days. A control group only treated with water was also used. Implantation of the pellets took place on the first day of treatment.

[8] = test system: osteoarthrosis of the spine and of the knee; assay: Clinical open running study with control (physiotherapy); assay type: in vivo, human
Protocol: 2. In an open running study with control, there was investigated the action of diacetylrhein against osteoarthrosis of the spine and of the knee in 70 patients (35/35). The dosage administered was 100 mg of diacetylrhein per day. The period of treatment was 60 days and the period of observation was 75 days. The test parameters were pain and movement limitation. The parameters were evaluated according to a score system. The control group comprised 35 patients in the case of which exclusively physiotherapeutic measures were carried out. Physiotherapy was also carried out in the diacetylrhein treatment group.

[9] = 50 mg of diacetylrhein twice daily
[10] = crossover study, 43 days in all
[11] = 250 mg of naproxen three times daily

## CC(=O)Oc1ccccc1C(=O)O [acetylsalicylic acid, reference compound]
[1]; 15 mg of acetylsalicylic acid/kg/day for 8 weeks (positive control group)
  clinical signs of arthrosis (disturbances of movement, dragging of the rear legs): improved significantly

## CC(=O)Oc1cccc2c1C(=O)c1c(OC(C)=O)cc(C(=O)O)cc1C2=O [diacetylrhein]
[2]
  LD50: 119 to 339 mg/kg
[2]; po
  LD50: 1900 to 7900 mg/kg
[3]; [9]
  number of cases with mucosal lesions of grade 2 (endoscopic findings): one
  share of patients with mucosal lesions of grade 2 (endoscopic findings): 10%
[4]; single administration of 400 mg/kg
  erosions of the gastric mucosa: did not give rise to any erosions
[4]; twice daily 100 mg/kg over the course of 3 days
  gastric mucosal damage: did not initiate any mucosal damage
[5]; [10]
  clinical laboratory parameters: no changes
  side effects: No noteworthy side effects
[5]; crossover, 50 mg diacetylrhein twice daily 20 days vs 250 mg naproxen twice daily 20 days
  pain, compression pain, passive movement pain, function limitation and swelling (score system), vs naproxen: superiority
[6]; 30 days after discontinuation of diacetylrhein, 5% level
  night pain and pressure pain after discontinuation, vs naproxen/placebo collective: difference was also verified
[6]; days 90 and 120, under subsequent placebo, P<0.01
  spontaneous pain and active and passive movement pain after discontinuation, vs naproxen/placebo collective: statistically significant superiority
[6]; 50 mg of diacetylrhein twice daily, P<0.01
  improvement of all test parameters (pain and movement symptoms score, function limitation, compatibility) vs initial values: statistically significant rate of improvement
[7]; rats (n=10), oral, 25, 50 or 100 mg diacetylrhein/kg daily for 5 days, in comparison with water-treated control group
  Fresh and dry weights of the granuloma: significant and clearly dosage-dependent reduction
[7]; rats, oral, 100 mg diacetylrhein/kg daily for 5 days vs 5 mg indomethacin/kg or 100 mg acetylsalicylic acid/kg
  action on granuloma weights compared with reference drugs: corresponded to about the action of 5 mg indomethacin or of 100 mg acetylsalicylic acid
[7]; rats, oral, daily treatment for 5 days
  weights of the thymus and adrenals: did not change
[8]; 35/35 patients, 100 mg per day plus physiotherapy for 60 days vs physiotherapy only
  pain and movement limitation (score system), treatment group vs control group: statistically significant superiority
[8]; period of observation 75 days, treatment 60 days, 100 mg per day
  effect after discontinuation of the treatment: continuing therapeutic effect (hang-over effect)
[1]; 5 mg of diacetylrhein/kg/day for 8 weeks after 3 x 10,000 IU vitamin A and 26 day treatment-free interval
  clinical signs of arthrosis (disturbances of movement, dragging of the rear legs): improved significantly
[1]; rabbits, 3 mg/kg/day for 8 weeks starting 56 days after 3 x 30,000 IU vitamin A, in comparison with control group
  macroscopically and microscopically recognisable joint changes: significantly reduced

## COc1ccc2cc([C@H](C)C(=O)O)ccc2c1 [naproxen, reference compound]
[3]; [11]
  number of patients with mucosal lesions of grade 2, 3 and 4 (endoscopic findings): 5 patients
  share of patients with mucosal lesions of grade 2, 3 and 4 (endoscopic findings): 50%
[6]; 750 mg of naproxen daily, P<0.05
  improvement of all test parameters (pain and movement symptoms score, function limitation, compatibility) vs initial values: statistically significant rate of improvement
